In ChEMBL document CHEMBL5214990, “Novel Aryl Alkamidazole Derivatives as Multifunctional Antifungal Inhibitors: Design, Synthesis, and Biological Evaluation” (J Med Chem, 2022):
Converted amounts (≈) assume the structure as drawn. The source made the active and inactive calls. The calls are words filed in the database; no cut-off is given here.

Legend:
Candida albicans [1] = test: Antifungal activity against Candida albicans infected in mouse assessed as reduction in fungal proliferation in the infection region at 20 mg/kg, ip administered on days 2,4,6,8,10,12 and measured on day 14 by hematoxylin-eosin staining based analysis; format: functional, organism-based; conditions: time 13.0 day
Candida albicans [2] = test: Antifungal activity against Candida albicans infected in mouse assessed as disappearance of nuclear aggregation in the infection region at 20 mg/kg, ip administered on days 2,4,6,8,10,12 and measured on day 14 by hematoxyin-eosin staining based analysis; format: functional, organism-based; conditions: time 13.0 day
Pichia kudriavzevii = test: Antifungal activity against Candida krusei ATCC 6258 assessed as inhibition of fungal growth measured after 72 hrs by CLSI based liquid medium dilution method; format: functional
Mus musculus [3] = test: Anti-inflammatory activity in mouse infected with Candida albicans assessed as reduction in NLRP3 expression in infection tissues at 20 mg/kg, ip administered on days 2,4,6,8,10,12 and measured on day 14 by western blot analysis; format: functional, organism-based; conditions: time 13.0 day
Candida albicans [4] = test: Antifungal activity against fluconazole-resistant Candida albicans 17# assessed as inhibition of fungal growth measured after 72 hrs by CLSI based liquid medium dilution method; format: functional
Candida albicans [5] = test: Antifungal activity against fluconazole-resistant Candida albicans 904 assessed as inhibition of fungal growth measured after 72 hrs by CLSI based liquid medium dilution method; format: functional
Candida albicans [6] = test: Antifungal activity against Candida albicans infected in mouse assessed as reduction in total amount of fungal cells in infection region at 20 mg/kg, ip administered on days 2,4,6,8,10,12 and measured on day 14 by hematoxyin-eosin staining based analysis; format: functional, organism-based; conditions: time 13.0 day
Candida albicans [7] = test: Antifungal activity against Candida albicans infected in mouse assessed as reduction in total amount of fungal cells in infection region at 20 mg/kg, ip administered on days 2,4,6,8,10,12 and measured on day 14 by GMS staining based analysis; format: functional, organism-based; conditions: time 13.0 day
Aspergillus fumigatus = test: Antifungal activity against Aspergillus fumigatus KM8001 assessed as inhibition of fungal growth measured after 72 hrs by CLSI based liquid medium dilution method; format: functional
Candida albicans [8] = test: Antifungal activity against Candida albicans infected in mouse assessed as reduction in fungal endogenous infection symptoms at 20 mg/kg, ip administered on days 2,4,6,8,10,12 and measured on day 14 by hematoxylin-eosin staining based analysis; format: functional, organism-based; conditions: time 13.0 day
[9] = target: T1, Lanosterol 14-alpha demethylase (Candida albicans (strain SC5314 / ATCC MYA-2876) (Yeast), UniProt P10613); test: Inhibition of CYP51 in Candida albicans ATCC SC5314 assessed as reduction in substrate consumption using lanosterol as substrate preincubated for 30 mins followed by substrate addition and measured after 60 mins by HPLC analysis
Candida albicans [10] = test: Antifungal activity against Candida albicans infected in mouse assessed as reduction in necrotic cell fragments in intercellular spaces of the infection region at 20 mg/kg, ip administered on days 2,4,6,8,10,12 and measured on day 14 by GMS staining based analysis; format: functional, organism-based; conditions: time 13.0 day
Mus musculus [11] = test: Anti-inflammatory activity in mouse infected with Candida albicans assessed as reduction in NF-kappaB p65 expression in infection tissues at 20 mg/kg, ip administered on days 2,4,6,8,10,12 and measured on day 14 by western blot analysis; format: functional, organism-based; conditions: time 13.0 day
Candida albicans [12] = test: Induction of apoptosis in Candida albicans assessed as necrotic cells measured after 24 hrs by Annexin V-FITC/PI staining based flow cytometry (reference value: 3.37%); format: functional
Candida albicans [13] = test: Antifungal activity against Candida albicans infected in mouse assessed as disappearance of nuclear aggregation in the infection region at 20 mg/kg, ip administered on days 2,4,6,8,10,12 and measured on day 14 by GMS staining based analysis; format: functional, organism-based; conditions: time 13.0 day
Candida albicans [14] = test: Antifungal activity against fluconazole-resistant Candida albicans 901 assessed as inhibition of fungal growth measured after 72 hrs by CLSI based liquid medium dilution method; format: functional
Candida albicans [15] = test: Induction of apoptosis in Candida albicans assessed as early apoptotic cells measured after 24 hrs by Annexin V-FITC/PI staining based flow cytometry (reference value: 0.46%); format: functional
Mus musculus [16] = test: Anti-inflammatory activity in mouse infected with Candida albicans assessed as reduction in PD-L1 expression in spleen at 20 mg/kg, ip administered on days 2,4,6,8,10,12 and measured on day 14 by immunohistochemical analysis; format: functional, organism-based; conditions: time 13.0 day
Mus musculus [17] = test: Anti-inflammatory activity in mouse infected with Candida albicans assessed as reduction in PD-L1 expression in infection tissue at 20 mg/kg, ip administered on days 2,4,6,8,10,12 and measured on day 14 by western blot analysis; format: functional, organism-based; conditions: time 13.0 day
Candida albicans [18] = test: Antifungal activity against fluconazole-resistant Candida albicans 632 assessed as inhibition of fungal growth measured after 72 hrs by CLSI based liquid medium dilution method; format: functional
[19] = target: T1, Lanosterol 14-alpha demethylase; test: Inhibition of CYP51 in Candida albicans ATCC SC5314 assessed as ergosterol content at 4 ug/ml measured after 48 hrs by GC-MS analysis (reference value: 95.61%); set-up: scale not given: the % may be the effect or the level left; conditions: at 4 µg/mL
Candida albicans [20] = test: Induction of apoptosis in Candida albicans assessed as viable cells measured after 24 hrs by Annexin V-FITC/PI staining based flow cytometry (reference value: 95.7%); format: functional
Mus musculus [21] = test: Anti-inflammatory activity in mouse infected with Candida albicans assessed as reduction in COX-2 expression in spleen at 20 mg/kg, ip administered on days 2,4,6,8,10,12 and measured on day 14 by immunohistochemical analysis; format: functional, organism-based; conditions: time 13.0 day
Candida albicans [22] = test: Induction of mitochondrial membrane depolarization in Candida albicans assessed as fungal cells with depolarized mitochondria measured after 24 hrs by JC-1 staining based flow cytometry (reference value: 3.22%); format: functional
Candida albicans [23] = test: Antifungal activity against Candida albicans infected in mouse assessed as increase in animal's body weight at 20 mg/kg, ip administered on days 2,4,6,8,10,12 and measured on day 14; format: functional, organism-based; conditions: time 13.0 day
[24] = target: T1, Lanosterol 14-alpha demethylase; test: Inhibition of CYP51 in Candida albicans ATCC SC5314 assessed as eburicol content at 4 ug/ml measured after 48 hrs by GC-MS analysis (reference value: 1.84%); set-up: scale not given: the % may be the effect or the level left; conditions: at 4 µg/mL
[25] = target: T1, Lanosterol 14-alpha demethylase; test: Inhibition of CYP51 in Candida albicans ATCC SC5314 assessed as unknown sterol content at 4 ug/ml measured after 48 hrs by GC-MS analysis; set-up: scale not given: the % may be the effect or the level left; conditions: at 4 µg/mL
Candida albicans [26] = test: Antifungal activity against Candida albicans assessed as inhibition of fungal cell proliferation by measuring decrease in fungal cell density measured after 24 hrs; format: functional, organism-based
Candida tropicalis = test: Antifungal activity against Candida tropicalis ATCC 1369 assessed as inhibition of fungal growth measured after 72 hrs by CLSI based liquid medium dilution method; format: functional
Mus musculus [27] = test: Anti-inflammatory activity in mouse infected with Candida albicans assessed as reduction in IL-6R expression in spleen at 20 mg/kg, ip administered on days 2,4,6,8,10,12 and measured on day 14 by immunohistochemical analysis; format: functional, organism-based; conditions: time 13.0 day
Candida albicans [28] = test: Antifungal activity against Candida albicans infected in mouse assessed as reduction in necrotic cell fragments in intercellular spaces of the infection region at 20 mg/kg, ip administered on days 2,4,6,8,10,12 and measured on day 14 by hematoxyin-eosin staining based analysis; format: functional, organism-based; conditions: time 13.0 day

T1 sequence (P10613 whole entry, the tested form may be a part): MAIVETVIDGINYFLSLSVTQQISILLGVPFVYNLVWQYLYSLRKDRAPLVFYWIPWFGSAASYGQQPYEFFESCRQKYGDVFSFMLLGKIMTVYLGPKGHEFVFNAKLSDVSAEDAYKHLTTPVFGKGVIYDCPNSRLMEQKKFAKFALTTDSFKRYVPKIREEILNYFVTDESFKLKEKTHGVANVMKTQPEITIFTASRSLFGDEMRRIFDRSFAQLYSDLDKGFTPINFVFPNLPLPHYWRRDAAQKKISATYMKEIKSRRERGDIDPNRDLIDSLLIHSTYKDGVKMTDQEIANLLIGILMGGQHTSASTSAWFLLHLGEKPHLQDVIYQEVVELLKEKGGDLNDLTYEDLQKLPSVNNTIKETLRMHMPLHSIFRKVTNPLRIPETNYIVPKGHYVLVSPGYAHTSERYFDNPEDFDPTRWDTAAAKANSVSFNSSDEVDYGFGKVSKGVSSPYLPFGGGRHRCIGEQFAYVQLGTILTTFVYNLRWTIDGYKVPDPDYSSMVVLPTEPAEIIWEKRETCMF

OC(Cn1cncn1)(Cn1cncn1)c1ccc(F)cc1F [FLUCONAZOLE]
Activity (Candida albicans [1]): Active
Activity (Candida albicans [2]): Active
MIC50 (Pichia kudriavzevii): 1 µg/mL (≈ 3.27 µM)
Activity (Mus musculus [3]): Active
MIC50 (Candida albicans [4]): > 8 µg/mL
MIC50 (Candida albicans [5]): > 8 µg/mL
Activity (Candida albicans [6]): Active
Activity (Candida albicans [7]): Active
MIC50 (Aspergillus fumigatus): > 8 µg/mL
Activity (Candida albicans [8]): Active
IC50 [9]: 0.11 µM
Activity (Candida albicans [10]): Active
Activity (Mus musculus [11]): Active
Activity (Candida albicans [12]): 13%
Activity (Candida albicans [13]): Active
MIC50 (Candida albicans [14]): > 8 µg/mL
Activity (Candida albicans [15]): 12.3%
Activity (Mus musculus [16]): Active
Activity (Mus musculus [17]): Active
MIC50 (Candida albicans [18]): > 8 µg/mL
Activity [19]: 20.57%
Activity (Candida albicans [20]): 68.7%
Activity (Mus musculus [21]): Active
Activity (Candida albicans [22]): 19.1%
Activity (Candida albicans [23]): Active
Activity [24]: 40.17%
Activity [25]: 4.09%
Activity (Candida albicans [26]): Active
MIC50 (Candida tropicalis): 0.5 µg/mL (≈ 1.63 µM)
Activity (Mus musculus [27]): Active
Activity (Candida albicans [28]): Active

C[C@H](C(=O)N(C)CC(O)(Cn1ccnc1)c1ccc(Cl)cc1Cl)c1cccc(C(=O)c2ccccc2)c1 (stereo partly drawn)
Activity (Candida albicans [1]): Active
Activity (Candida albicans [2]): Active
MIC50 (Pichia kudriavzevii): 0.125 µg/mL (≈ 0.233 µM)
Activity (Mus musculus [3]): Active
MIC50 (Candida albicans [4]): 2 µg/mL (≈ 3.73 µM)
MIC50 (Candida albicans [5]): 1 µg/mL (≈ 1.86 µM)
Activity (Candida albicans [6]): Active
Activity (Candida albicans [7]): Active
MIC50 (Aspergillus fumigatus): 2 µg/mL (≈ 3.73 µM)
Activity (Candida albicans [8]): Active
IC50 [9]: 0.16 µM
Activity (Candida albicans [10]): Active
Activity (Mus musculus [11]): Active
Activity (Candida albicans [12]): 26%
Activity (Candida albicans [13]): Active
MIC50 (Candida albicans [14]): 0.5 µg/mL (≈ 0.932 µM)
Activity (Candida albicans [15]): 2.13%
Activity (Mus musculus [16]): Active
Activity (Mus musculus [17]): Active
MIC50 (Candida albicans [18]): 2 µg/mL (≈ 3.73 µM)
Activity [19]: 7.95%
Activity (Candida albicans [20]): 43.8%
Activity (Mus musculus [21]): Active
Activity (Candida albicans [22]): 66.6%
Activity (Candida albicans [23]): Active
Activity [24]: 50.87%
Activity [25]: 2.61%
Activity (Candida albicans [26]): Active
MIC50 (Candida tropicalis): 0.25 µg/mL (≈ 0.466 µM)
Activity (Mus musculus [27]): Active
Activity (Candida albicans [28]): Active

C[C@H](C(=O)N(C)CC(O)(Cn1ccnc1)c1ccc(Cl)cc1)c1ccc(-c2ccccc2)c(F)c1 (stereo partly drawn)
Activity (Candida albicans [1]): Active
Activity (Candida albicans [2]): Active
MIC50 (Pichia kudriavzevii): 0.25 µg/mL (≈ 0.508 µM)
Activity (Mus musculus [3]): Active
MIC50 (Candida albicans [4]): 2 µg/mL (≈ 4.07 µM)
MIC50 (Candida albicans [5]): 2 µg/mL (≈ 4.07 µM)
Activity (Candida albicans [6]): Active
Activity (Candida albicans [7]): Active
MIC50 (Aspergillus fumigatus): 2 µg/mL (≈ 4.07 µM)
Activity (Candida albicans [8]): Active
IC50 [9]: 0.19 µM
Activity (Candida albicans [10]): Active
Activity (Mus musculus [11]): Active
Activity (Candida albicans [12]): 34.3%
Activity (Candida albicans [13]): Active
MIC50 (Candida albicans [14]): 0.5 µg/mL (≈ 1.02 µM)
Activity (Candida albicans [15]): 1.8%
Activity (Mus musculus [16]): Active
Activity (Mus musculus [17]): Active
MIC50 (Candida albicans [18]): 4 µg/mL (≈ 8.13 µM)
Activity [19]: 13.51%
Activity (Candida albicans [20]): 44.4%
Activity (Mus musculus [21]): Active
Activity (Candida albicans [22]): 67.3%
Activity (Candida albicans [23]): Active
Activity [24]: 43.28%
Activity [25]: 3.47%
Activity (Candida albicans [26]): Active
MIC50 (Candida tropicalis): 0.25 µg/mL (≈ 0.508 µM)
Activity (Mus musculus [27]): Active
Activity (Candida albicans [28]): Active
